According to patent US11014902B2, “MYC G-quadruplex stabilizing small molecules and their use” (The United States of America, as represented by the …, priority 2015, dated 2021):

Key:
Test in all cases: NCI-60 cell growth (SRB)
Format in all cases: cell-based
[1] = test system: SK-MEL-2; conditions: SK-MEL-2, Melanoma; 10 μM, 48 hours
Protocol: (§1) This example illustrates that Compounds 1 and 23 can be used in inhibit the growth of c-Myc expressing cancer cell lines in vitro. The NCI-60 panel of cancer cell lines (see Shoemaker, Nat. Rev. Cancer, 6, 813-823, 2006, and dtp.cancer.gov/discovery_development/nci-60/) was assayed for cell growth in the presence of 10 μM Compound 1 or Compound 23 for 48 hours. At 48 hours, the assay was terminated by fixation with TCA and determination of relative cell counts by addition of Sulforhodamine B (SRB, see Alley et al., Cancer Research, 48: 589-601, 1988.). Growth percent was determined by comparison of SRB reading of a duplicate plate of cells taken at the time of compound addition to the SRB reading at the termination of the treatment. The following table provides a summary of the percent of growth of each cell line in the panel compared to control (no treatment), as well as the mean delta and range of percent growth compared to control across the panel of cell lines for each treatment condition.

[2] = test system: MDA-MB-468; conditions: MDA-MB-468, Breast Cancer; 10 μM, 48 hours
Protocol: as §1

[3] = test system: IGROV1; conditions: IGROV1, Ovarian Cancer; 10 μM, 48 hours
Protocol: as §1

[4] = test system: NCI-H23; conditions: NCI-H23, Non-Small Cell Lung Cancer; 10 μM, 48 hours
Protocol: as §1

[5] = test system: HCT-116; conditions: HCT-116, Colon Cancer; 10 μM, 48 hours
Protocol: as §1

[6] = test system: BT-549; conditions: BT-549, Breast Cancer; 10 μM, 48 hours
Protocol: as §1

[7] = test system: HOP-62; conditions: HOP-62, Non-Small Cell Lung Cancer; 10 μM, 48 hours
Protocol: as §1

[8] = test system: SNB-75; conditions: SNB-75, CNS Cancer; 10 μM, 48 hours
Protocol: as §1

[9] = test system: EKVX; conditions: Non-Small Cell Lung Cancer, 10 μM, 48 hours
Protocol: as §1

[10] = test system: A498; conditions: A498, Renal Cancer; 10 μM, 48 hours
Protocol: as §1

[11] = test system: OVCAR-4; conditions: OVCAR-4, Ovarian Cancer; 10 μM, 48 hours
Protocol: as §1

[12] = test system: MDA-MB-231/ATCC; conditions: Breast Cancer, 10 μM, 48 hours
Protocol: as §1

[13] = test system: NCI-H460; conditions: NCI-H460, Non-Small Cell Lung Cancer; 10 μM, 48 hours
Protocol: as §1

[14] = test system: ACHN; conditions: Renal Cancer, 10 μM, 48 hours
Protocol: as §1

[15] = test system: MOLT-4; conditions: MOLT-4, Leukemia; 10 μM, 48 hours
Protocol: as §1

[16] = test system: LOX IMVI; conditions: Melanoma, 10 μM, 48 hours
Protocol: as §1

[17] = test system: SN12C; conditions: Renal Cancer, 10 μM, 48 hours
Protocol: as §1

[18] = test system: KM12; conditions: KM12, Colon Cancer; 10 μM, 48 hours
Protocol: as §1

[19] = test system: HCT-15; conditions: HCT-15, Colon Cancer; 10 μM, 48 hours
Protocol: as §1

[20] = test system: HL-60(TB); conditions: Leukemia, 10 μM, 48 hours
Protocol: as §1

[21] = test system: SNB-19; conditions: SNB-19, CNS Cancer; 10 μM, 48 hours
Protocol: as §1

[22] = test system: MDA-MB-435; conditions: MDA-MB-435, Melanoma; 10 μM, 48 hours
Protocol: as §1

[23] = test system: HCC-2998; conditions: HCC-2998, Colon Cancer; 10 μM, 48 hours
Protocol: as §1

[24] = test system: CCRF-CEM; conditions: Leukemia, 10 μM, 48 hours
Protocol: as §1

[25] = test system: SF-295; conditions: SF-295, CNS Cancer; 10 μM, 48 hours
Protocol: as §1

[26] = test system: UO-31; conditions: UO-31, Renal Cancer; 10 μM, 48 hours
Protocol: as §1

[27] = test system: SK-MEL-28; conditions: SK-MEL-28, Melanoma; 10 μM, 48 hours
Protocol: as §1

[28] = test system: SK-OV-3; conditions: SK-OV-3, Ovarian Cancer; 10 μM, 48 hours
Protocol: as §1

[29] = test system: NCI-H226; conditions: NCI-H226, Non-Small Cell Lung Cancer; 10 μM, 48 hours
Protocol: as §1

[30] = test system: HOP-92; conditions: HOP-92, Non-Small Cell Lung Cancer; 10 μM, 48 hours
Protocol: as §1

[31] = test system: DU-145; conditions: DU-145, Prostate Cancer; 10 μM, 48 hours
Protocol: as §1

[32] = test system: SF-539; conditions: SF-539, CNS Cancer; 10 μM, 48 hours
Protocol: as §1

[33] = test system: OVCAR-8; conditions: OVCAR-8, Ovarian Cancer; 10 μM, 48 hours
Protocol: as §1

[34] = test system: MALME-3M; conditions: Melanoma, 10 μM, 48 hours
Protocol: as §1

[35] = test system: TK-10; conditions: TK-10, Renal Cancer; 10 μM, 48 hours
Protocol: as §1

## Cc1oc2ccc(O)c(CN3CCCCCC3)c2c1C(=O)Nc1ccc(C(F)(F)F)cc1 [Compound 23]
[1]
  Growth Percent: 78.38%
[2]
  Growth Percent: 5.74%
[3]
  Growth Percent: 54.25%
[4]
  Growth Percent: 69.93%
[5]
  Growth Percent: 32.68%
[6]
  Growth Percent: 78.51%
[7]
  Growth Percent: 70.39%
[8]
  Growth Percent: 50.57%
[9]
  Growth Percent: 64.06%
[10]
  Growth Percent: 50.48%
[11]
  Growth Percent: 58.58%
[12]
  Growth Percent: 48.96%
[13]
  Growth Percent: 51.53%
[14]
  Growth Percent: 68.48%
[15]
  Growth Percent: 64.31%
[16]
  Growth Percent: 39.15%
[17]
  Growth Percent: 66.72%
[18]
  Growth Percent: 65.50%
[19]
  Growth Percent: 45.06%
[20]
  Growth Percent: 83.01%
[21]
  Growth Percent: 69.94%
[22]
  Growth Percent: 58.22%
[23]
  Growth Percent: 11.22%
[24]
  Growth Percent: 65.23%
[25]
  Growth Percent: 48.84%
[26]
  Growth Percent: 40.69%
[27]
  Growth Percent: 76.90%
[28]
  Growth Percent: 76.35%
[29]
  Growth Percent: 72.45%
[30]
  Growth Percent: 34.88%
[31]
  Growth Percent: 64.80%
[32]
  Growth Percent: 61.23%
[33]
  Growth Percent: 66.34%
[34]
  Growth Percent: 49.92%
[35]
  Growth Percent: 81.06%

## Cc1ccc(NC(=O)c2c(C)oc3ccc(O)c(CN4CCCCCC4)c23)cc1 [Compound 1]
[1]
  Growth Percent: 99.26%
[2]
  Growth Percent: 73.62%
[3]
  Growth Percent: 81.22%
[4]
  Growth Percent: 90.23%
[5]
  Growth Percent: 64.67%
[6]
  Growth Percent: 92.88%
[7]
  Growth Percent: 79.76%
[8]
  Growth Percent: 78.34%
[9]
  Growth Percent: 83.79%
[10]
  Growth Percent: 64.12%
[11]
  Growth Percent: 82.06%
[12]
  Growth Percent: 79.39%
[13]
  Growth Percent: 80.25%
[14]
  Growth Percent: 93.94%
[15]
  Growth Percent: 92.81%
[16]
  Growth Percent: 88.87%
[17]
  Growth Percent: 84.31%
[18]
  Growth Percent: 102.59%
[19]
  Growth Percent: 83.45%
[20]
  Growth Percent: 92.74%
[21]
  Growth Percent: 84.35%
[22]
  Growth Percent: 95.94%
[23]
  Growth Percent: 116.36%
[24]
  Growth Percent: 87.67%
[25]
  Growth Percent: 85.34%
[26]
  Growth Percent: 62.74%
[27]
  Growth Percent: 96.60%
[28]
  Growth Percent: 100.26%
[29]
  Growth Percent: 85.66%
[30]
  Growth Percent: 55.89%
[31]
  Growth Percent: 103.26%
[32]
  Growth Percent: 93.10%
[33]
  Growth Percent: 89.96%
[34]
  Growth Percent: 107.60%
[35]
  Growth Percent: 92.66%
